# Data taken from patent EP0294069A2, “Purine compounds, process for their preparation, intermediates and pharmaceutical compositions” (priority 1987, dated 1988).
# Columns and labels:
# [1] = system: HSV-1 (SC16 strain, MRC-5 cells); assay: Plaque reduction test for herpes simplex virus 1; type: cell-based; details: Human alphaherpesvirus 1, MRC5, plaque number reduced by 50%
# [2] = system: HSV-2 (MS strain, MRC-5 cells); assay: Plaque reduction test for herpes simplex virus 2; type: cell-based; details: Human alphaherpesvirus 2, MRC5, plaque number reduced by 50%
# Method: Cells (Vero or MRC-5) were grown to confluence in 24 well multi-dishes (well diameter = 1.5cm). The drained cell monolayers were each infected with approximately 50 infectious particles of herpes simplex virus 1 (HSV-1; strain HFEM) or herpes simplex virus 2 (HSV-2; strain MS) in 100µl of phosphate-buffered saline. The virus was adsorbed for 1 hour at room temperature. After adsorption, residual inoculum was removed from each well and replaced with 0.5ml of Eagle's MEM containing 5% newborn calf serum and 0.9% agarose (A37). Once the agarose had set, dilutions of the test compound, which had been prepared in Eagle's MEM (containing 5% newborn calf serum), were added, each well receiving 0.5ml of liquid overlay. The test compound was diluted to give the following series of concentrations: 200, 60, 20, 6....0.06µg/ml; final concentrations in the assay ranged, therefore, between 100µg/ml and 0.03µg/ml. […]
# Cultures were fixed in formal saline, the agarose overlays were carefully washed off, and then the cell monolayers were stained with carbol fuchsin. […] The IC₅₀ (concentration to drug which inhibits plaque number by 50% relative to the number of plaques observed in virus control monolayers) of the test compound was calculated. In addition, the monolayers were examined for evidence of drug-induced cytotoxicity; the minimum concentration at which cytotoxicity occurs was recorded.
# [3] = system: Visna Virus (K184 strain in SCP cells); assay: CPE inhibition test (established monolayer) for lentiviruses; type: cell-based; details: Visna-maedi virus
# Method: 3 x 10⁴ sheep choroid plexus (SCP) cells were plated into individual wells of a 96 well microtitre plate in 100µl of Eagle's MEM with Hanks salts containing 10% heat inactivated foetal calf serum (FCS). When monolayers had become established (after l or 2 days growth) they were washed with 200µl of maintenance medium (Eagle's MEM with Hanks salts containing 0.5% FCS) and infected with 100µl of visna virus (strain K184) in maintenance medium (30 TCID₅₀/ml). Test samples were diluted with maintenance medium in further 96 well microtitre plates over the range 200-0.09µg/ml by 3-fold dilution steps. 100µl of the diluted samples was then transferred directly onto virus-infected monolayers (final concentration range therefore 100-0.045µg/ml) and incubated at 37°C in a humidified, 5% CO₂ incubation until virus-induced CPE was maximal in the untreated virus-infected controls (usually 12-14 days). The plates were fixed with formal saline and stained with crystal violet. Virus-induced CPE was then scored microscopically and the minimum concentration of sample giving complete protection of the cell monolayers (MIC) determined.
# [4] = Drug-induced cytotoxicity in uninfected cell monolayers; type: cell-based; details: uninfected cells, not cytotoxic at concentrations up to 100 µg/ml, read-out: concentration at which cytotoxicity occurs
# Method: Cultures were fixed in formal saline, the agarose overlays were carefully washed off, and then the cell monolayers were stained with carbol fuchsin. A stereo microscope was used to count plaques. The IC₅₀ (concentration to drug which inhibits plaque number by 50% relative to the number of plaques observed in virus control monolayers) of the test compound was calculated. In addition, the monolayers were examined for evidence of drug-induced cytotoxicity; the minimum concentration at which cytotoxicity occurs was recorded.
# [5] = Antiviral potency, comparison of isomers (no method given); details: as compared with the (R)-isomer
Compound,IC50 [1] [µg/mL],IC50 [2] [µg/mL],IC50 [3] [µg/mL],MCC [4] [µg/mL],potency as an antiviral agent [5]
"Nc1nc2c(ncn2OC[C@@H](O)CO)c(=O)[nH]1 [Preparation Example, (S)-9-(2,3-Dihydroxyprop-1-oxy)quanine]",0.7,0.06,10,> 100,
"Nc1ncc2ncn(OC[C@@H](O)CO)c2n1 [Example, (S)-2-Amino-9-(2,3-dihydroxyprop-l-oxy)purine]",,,,,greater potency
